Measured values: patent US20180369264A1, “COMBINATION OF A CARDIAC STEROID AND AN AKT INHIBITOR FOR THE TREATMENT OF CARDIOVASCULAR DISEASES AND DISORDERS” (YISSUM RESEARCH DEVELOPMENT COMPANY OF THE HEBREW …, priority 2015, published 2018)
Read-outs that look alike come from different tables or passages of the source.

What was measured:
[1] = test system: Ca^2+ transients in acc mutant zebrafish isolated adult heart; test: Ca^2+ transients in acc mutant zebrafish isolated adult heart; details: for Amplitude (Maximal deflection from baseline) / Area (Area under the transient relative to baseline) / Decay slope (−Δ Fluorescence in the linear phase/sec) / Rate / Rise slope (+Δ Fluorescence in the linear phase/sec): Acc mutant, Ouabain 200 μM, MK-2206 1 nM
Method: Spontaneous Ca^2+ transients were measured in isolated hearts from adult zebrafish. The zebrafish were stunned by a blow to the head and the hearts were removed quickly and placed in Dulbecco's Modified Eagle's Medium (DMEM) containing 10% Fetal Bovine Serum (FBS) at room temperature. A total 3-5 hearts were placed in a small Petri dish containing 100 μl Krebs-Ringer's solution (119 mM NaCl, 2.5 mM KCl, 1 mM NaH2PO4, 2.5 mM CaCl2, 1.3 mM MgCl2, 20 mM HEPES and 11 mM D-glucose) with 0.01 mM Fura-2 AM (Biotium, Inc., CA, USA) in DMEM-FBS. Following incubation for 10 min (37° C., 5% CO2), 150 μl of Krebs-Ringer's solution were added to the Petri dish which was incubated for an additional 30 minutes. The dye was removed from the solution by two incubations (10 minutes each, room temperature) in DMEM-FBS solution. Intracellular Ca^2+ transients were measured in stabilizing medium containing 1% low-melt agarose in Krebs-Ringer's solution. The hearts were kept for 30 minutes in the presence of MK-2206 (or saline) and then underwent excitation/emission cycles for 2 minutes at 340 and 380 nm with 510 nm emission using a PTI fluorimetric system (Photon Technology International, Madison, USA). Ouabain was then added and the excitation/emission cycles were monitored for 8 minutes. The Ca^2+ levels are presented as the ratio of 340/380 nm fluorescence emission.

[2] = test system: primary adult zebrafish cardiomyocytes; test: Primary adult zebrafish cardiomyocyte contractility; assay type: cell-based; details: for Amplitude / Contraction Rate (−dv/dt) / Relaxation Rate (+dv/dt): wt, 0.1 nM Oua, 0.5 Hz
Method: Adult (4 to 12-month-old) ventricular myocytes were obtained by enzymatic dissociation (with collagenase II and IV, at 5 mg/ml, each). The zebrafish were stunned by a blow to the head and the brain was pithed. The heart was quickly removed and placed in a small Petri dish containing 10 ml isolation solution: 100 mM NaCl, 10 mM KCl, 1.2 mM KH2PO4, 4 mM MgSO4, 50 mM taurine, 20 mM glucose, and 10 mM Hepes, pH 6.9. The ventricle was cut free from the bulbus and atrium under a binocular. Ventricles from 3 fish were incubated for 45 minutes at 32° C. in a solution containing perfusion buffer (150 mM NaCl, 5.4 mM KCl, 1.5 mM MgSO4, 0.4 mM NaH2PO4, 2 mM CaCl2, 10 mM glucose, and 10 mM Hepes, pH 7.7). Collagenases II and IV (Gibco, NY, USA, 5 mg/ml each) and additional CaCl2 (2.012 mM final concentration) were added. Following Eppendorf centrifugation (1 minute, 250×g at room temperature) the precipitated cells were suspended in 1 ml perfusion buffer for 30 minutes at room temperature before use.
Cells were transferred to a chamber with a quartz base and examined using an inverted epifluorescence microscope (Nikon Diaphot 200, Japan). The myocytes were field-stimulated (0.5 Hz, 70 V, square waves) and contractions were measured using a video motion edge detector (Crescent Electronics, Sandy, Utah, USA) at the rate of 5 Hz. Cardiomyocyte performance was calculated as the percentage of resting cell length. The slopes of contraction and relaxation (+dL/dt and −dL/dt) were calculated from the linear portions of the changes in contractility. 9 cells per each group were measured. Each of the experiments was repeated at least 3 times with identical results.

[3] = test system: wild-type zebrafish larvae heart; assay type: in vivo, zebrafish (Danio rerio)
Method: Experiments were performed on wild-type (WT, AB strain) zebrafish (Danio rerio). The fish were maintained in accordance with the principles established by the NIH. […] The fish were kept in swimming medium (E3 medium) in small aquaria at 28° C. and maintained under a 14h: 10h light:dark cycle. The zebrafish larvae were maintained in the presence of 0.1% methylene blue (M9140, Sigma-Aldrich Inc, Israel) at 28° C. All measurements were taken in embryos at 72 hours post fertilization (hpf).
Ouabain, bufalin, digoxin, acetylcholine, carbachol, […] (pp2) and U0126 (1,4-diamino-2,3-dicyano-1,4-bis(2-aminophenylthio)butadiene) were purchased from Sigma-Aldrich Inc., Israel. The compounds were dissolved in egg water (0.3 g Instant Ocean Salt in distilled water) to a final selected concentration, as specified in the following examples. […]
Filming process Zebrafish larvae heart imaging was performed using an Olympus CKX41 (Japan) […] microscope with ×10 or ×20 magnification, and integrated incandescent illumination. A FastCam imi-tech (Korea) high speed digital camera with 640×480 pixel gray scale image sensor was mounted on the microscope, using ImCam software (IMI Technology, Co. Ltd) for high speed video recording. The larvae were anesthetized by placing them in filming/anesthetizing medium. Each larva in 0.5 ml filming/anesthetizing medium was transferred to a 96-well tissue culture plate at room temperature and sequential images of the heart were obtained, with the larvae positioned on their side, at 80 fps during 10 seconds with a shutter speed of 0.016 seconds.
Physiological parameters of cardiovascular performance, as indicated hereinbelow, were evaluated in the zebrafish larvae. Image analysis applications ImageJ (NIH, USA) were used, allowing the delineation of the endomyocardial border at the end of systole or end of diastole to define the ventricular area. Sequential still frames were analyzed to capture ventricular end-systole and end-diastole images. End Systolic Area (ESA, FIG. 1B) and End Diastolic Area (EDA, FIG. 1C) were used to calculate Fractional Area Change (FAC), according to the equation: FAC=(EDA-ESA)/EDA*100. The Ejection Fraction (EF) was determined by an independent estimate of ventricular volume. This was achieved by placing scan lines across the midventricular short axis (SA) and long axis (LA) at the end of systole (FIG. 1D) and diastole (FIG. 1E). […] EF was then calculated according to the equation: EF=(EDV-ESV)/EDV*100. Heart rate (HR) was measured in beats per minute. Cardiac output (CO) was calculated according to the equation: CO=(EDV-ESV)*HR. A minimum of five sequential pairs of systolic and diastolic cycles were measured and analyzed in 9-12 larvae for each treatment.

[4] = pre-incubation 1 nM MK-2206, 0.1 nM ouabain
[5] = Akt inhibitor experiment, 1 nM MK, 20 minutes
[6] = wt larvae, 10 nM MK-2206, 1 nM CS
[7] = ERK inhibitor experiment, 10 nM PD98059, 20 minutes

NC1(c2ccc(-c3nc4ccn5c(=O)[nH]nc5c4cc3-c3ccccc3)cc2)CCC1 [MK-2206]
Amplitude (Maximal deflection from baseline) [1]: 1.85 ± 0.05 | Area (Area under the transient relative to baseline) [1]: 2.79 ± 0.23 | Decay slope (−Δ Fluorescence in the linear phase/sec) [1]: 1.72 ± 0.22 | Rate [1]: 25 ± 3 wave/min | Rise slope (+Δ Fluorescence in the linear phase/sec) [1]: 0.51 ± 0.04 | contractility parameters, inhibitor by itself ([2]; 1 nM MK-2206): did not affect any of the contractility parameters | enhancement of ouabain-induced augmentation: increase in amplitude [2, 4]: 113% | enhancement of ouabain-induced augmentation: increase in contraction rise time [2, 4]: 183% | enhancement of ouabain-induced augmentation: increase in relaxation rise time [2, 4]: 169% | Amplitude [2, 5]: 0.19 ± 0.03 | Contraction Rate (−dv/dt) [2, 5]: 0.98 ± 0.19 | Relaxation Rate (+dv/dt) [2, 5]: 0.87 ± 0.20 | effect of inhibitor alone on heart function / basal contractility ([3]; PP2 50 nM, U0126 1 μM, MK-2206 10 nM for 2 hours): did not affect heart contractility parameters | effect on CS-induced increase in heart contractility (FAC and EF) compared with CS in the absence of the inhibitor [3, 6]: doubling of the CS-induced increase in heart contractility | effect on heart rate of MK-2206 with CS [3, 6]: not accompanied by any effect on heart rate

C[C@@H]1O[C@@H](O[C@H]2C[C@@H](O)[C@]3(CO)[C@H]4[C@H](O)C[C@]5(C)[C@@H](C6=CC(=O)OC6)CC[C@]5(O)[C@@H]4CC[C@]3(O)C2)[C@H](O)[C@H](O)[C@H]1O [ouabain, 3-(alpha-L-Rhamnopyranosyloxy)-1beta,5beta,11alpha,14,19-pentahydroxy-5beta-card-20(22)-enolide]
Amplitude (Maximal deflection from baseline) [1]: 1.67 ± 0.15 | Area (Area under the transient relative to baseline) [1]: 2.54 ± 0.56 | Decay slope (−Δ Fluorescence in the linear phase/sec) [1]: 1.92 ± 0.46 | Rate [1]: 35 ± 8.4 wave/min | Rise slope (+Δ Fluorescence in the linear phase/sec) [1]: 0.47 ± 0.1 | changes in Ca^2+ transients parameters ([1]; acc, 200 μM ouabain): did not result in any changes in the Ca^2+ transients parameters | changes in Ca^2+ transient parameters in the presence of Akt inhibitor ([1]; acc, 200 μM ouabain, Akt inhibitor): did not cause any changes in Ca^2+ transient parameters | increase in contractility ([2]; 0.1 nM ouabain): three- to fourfold | Amplitude [2, 5]: 0.38 ± 0.05 | Contraction Rate (−dv/dt) [2, 5]: 1.84 ± 0.28 | Relaxation Rate (+dv/dt) [2, 5]: 1.64 ± 0.23 | Amplitude [2, 7]: 0.53 ± 0.1 | Contraction Rate (−dv/dt) [2, 7]: 3.65 ± 0.38 | Relaxation Rate (+dv/dt) [2, 7]: 2.92 ± 0.37 | maximal increase in CO ([3]; 0.2 nM, 90 minutes): 38±3.68% | effect on force of contraction ([3]; 1 nM): increased significantly the force of contraction | effect on heart rate ([3]; 1 nM): without affecting heart rate | effect on heart rate ([3]; 0.05-0.4 nM, 90 minutes): no change in heart rate | concentration producing a significant increase in heart contractility ([3]; added to larvae swimming medium): 0.1 nM | effect on heart force of contraction (FAC, EF, CO) ([3]; low concentrations (ouabain 0.05-0.4 nM), 90 minutes): significant increase in the heart force of contraction in a dose-dependent manner
